Reference: patent US20250374926A1, “NOVEL DERIVATIVES OF NON-CODED AMINO ACIDS AND THEIR USE IN CROP PROTECTION” (FORTEPHEST LTD., priority 2022, published 2025)
Counter-ions that a name gives are not always drawn.

Tests used:
Format in all cases: in vivo
Lettuce seeds = assay: Filter paper bioassay on germination and early development of Lettuce seeds; conditions: lowest concentration causing malformation of radicle or shoots, visually assessed six days after beginning, 0 to 1 mmol/l; for minimal effective concentration: 144 h, read-out: MEC, score (Minimal Effective Concentration, activity score) (converted)
Description: Materials: Seeds of Lettuce R. (Super-Jericho, non-sterilized) were obtained from Ben Shahar Moshe Ltd., 99% purity. The test compounds listed in Table 3 below were synthesized de novo or purchased from different vendors. Bioassays: Filter Paper Bioassays with Lettuce seeds were performed following Bertin et al. 2009 with modifications as described below. Seeds were placed on Whatman no. 1 filter paper (Whatman, Middlesex, U.K.) in Petri dishes (10 seeds per plate) with 2.0 ml of an aqueous solution of test material in a concentration ranging from 0 (control) to 1 mmol/l. The Petri dishes were arranged in a tray tilted at a 45-degree angle and were kept in the dark for 48 hours. Then trays with plates were transferred to the growth chamber with a 6/18 dark/light cycle for four days. Each experiment was performed in at least two repeats.
The development of plants' radicles and shoots was visually assessed six days after the beginning of the test to determine the Minimal Effective Concentration (MEC) of a test material. In the context of the invention, MEC is defined as the lowest concentration level of a test material that caused deviation (malformation of radicle or shoots).

Sinapis = assay: Post-emergence herbicidal effect on potted weeds; conditions: 2-3 true leaves, up to 5 mg/pot, scale 0 (dead plants) to 5 (healthy, as control)
Description: (§1) Weed seeds were sawn in 0.3-liter pots containing medium-heavy clay-loam soil from organic fields (55% clay, 23% silt, 20% sand, 2% organic matter, pH 7.1). The experiment was conducted in a completely randomized design. Each treatment was replicated three times (3 pots). Each compound was typically tested on a weed panel which included Amaranth, Abutilon, Malva, Silybum, and Sinapis. The herbicides were applied at doses from 0 (control) to 5 mg/pot. The herbicides were applied on grown plants at stage 2-3 true leaves (post-emergence treatment). The plants were grown in the mesh house during the entire experiment. Plant development at 6, 12, 19, 26, and 32 days after application (DAA) was evaluated on a scale of 0 to 5, in which 0 represents dead plants, and 5 represents healthy plants similar or not different from Control. In the context of the invention, the herbicidal effect was expressed as a score calculated as an average of assessments of plants' vigor, height, and leaf color.

Malva = assay: Post-emergence herbicidal effect on potted weeds; conditions: 2-3 true leaves, up to 5 mg/pot, scale 0 (dead plants) to 5 (healthy, as control)
Description: as §1

Abutilon = assay: Post-emergence herbicidal effect on potted weeds; conditions: 2-3 true leaves, up to 5 mg/pot, scale 0 (dead plants) to 5 (healthy, as control)
Description: as §1

Lactuca = assay: Post-emergence herbicidal effect on potted weeds; conditions: 2-3 true leaves, up to 5 mg/pot, scale 0 (dead plants) to 5 (healthy, as control)
Description: as §1

Amaranth = assay: Post-emergence herbicidal effect on potted weeds; conditions: 2-3 true leaves, up to 5 mg/pot, scale 0 (dead plants) to 5 (healthy, as control)
Description: as §1

Trifolium = assay: Post-emergence herbicidal effect on potted weeds; conditions: 2-3 true leaves, up to 5 mg/pot, scale 0 (dead plants) to 5 (healthy, as control)
Description: as §1

Silybum = assay: Post-emergence herbicidal effect on potted weeds; conditions: 2-3 true leaves, up to 5 mg/pot, scale 0 (dead plants) to 5 (healthy, as control)
Description: as §1

Row | SMILES | minimal effective concentration (Lettuce seeds) | further results
1 | CCOC(=O)CSc1csc(Cl)n1 [compound 5850, ethyl 2-[(2-chloro-1,3-thiazol-4-yl)sulfanyl]acetate] | 10 µM | 
2 | O=C(O)CS(=O)(=O)c1csc(Cl)n1 [compound 5851, (2-chloro-1,3-thiazol-4-sulfonyl)acetic acid] | 1 µM | 
3 | O=C(O)CSc1cccc(Br)n1 [compound 6688, [(6-bromopyridin-2-yl)sulfanyl]acetic acid] | 1 µM | 
4 | CCOC(=O)CSc1cccc(Br)n1 [compound 6693, ethyl [(6-bromopyridin-2-yl)sulfanyl]acetate] | 1 µM | 
5 | CCCCOC(=O)CSc1nc(Cl)ccc1Br [compound 6694, butyl [(3-bromo-6-chloropyridin-2-yl)sulfanyl]acetate] | 1 µM | 
6 | CCCCOC(=O)CSc1ccc(Br)c(Br)n1 [compound 6700, butyl [(5,6-dibromopyridin-2-yl)sulfanyl]acetate] | 1 µM | 
7 | O=C(O)CNc1cccc(Br)n1 [compound 6702, 2-[(6-bromopyridin-2-yl)amino]acetic acid] | 1 µM | 
8 | CCCCOC(=O)C[S+]([O-])c1ccc(Br)c(Br)n1 (stereo not shown) [compound 6703, butyl (5,6-dibromopyridine-2-sulfinyl)acetate] | 10 µM | 
9 | NCCCCNc1ccc(Br)c(Br)n1 [compound 6709, N1-(5,6-dibromopyridin-2-yl)butane-1,4-diamine] | 10 µM | 
10 | CCCCCCCCOC(=O)CSc1cccc(Br)n1 [compound 7106, octyl [(6-bromopyridin-2-yl)sulfanyl]acetate] | 10 µM | 
11 | O=C(O)CSc1nc(Cl)cs1 [compound 7109, 2-[(4-chloro-1,3-thiazol-2-yl)sulfanyl]acetic acid] | 10 µM | 
12 | CCOC(=O)CSc1nc(Cl)cs1 [compound 7112, ethyl [(4-chloro-1,3-thiazol-2-yl)sulfanyl]acetate] | 10 µM | 
13 | CCOC(=O)CSc1ccc(F)c(Br)n1 [compound 7114, ethyl 2-[(6-bromo-5-fluoropyridin-2-yl)sulfanyl]acetate] | < 1 µM | Average Herbicidal Effect, score (Sinapis): 4; Average Herbicidal Effect, score (Malva): 4; Average Herbicidal Effect, score (Abutilon): 5; Average Herbicidal Effect, score (Lactuca): 5; Average Herbicidal Effect, score (Amaranth): 3; Average Herbicidal Effect, score (Trifolium): 4; Average Herbicidal Effect, score (Silybum): 5
14 | CCOC(=O)Cc1ccc(F)c(Br)n1 [compound 7117, ethyl (6-bromo-5-fluoropyridin-2-yl)acetate] | 10 µM | 
15 | CCOC(=O)CSc1nc(Cl)sc1Cl [compound 7119, ethyl 2-[(2,5-dichloro-1,3-thiazol-4-yl)sulfanyl]acetate] | 10 µM | 
16 | O=C(Cc1ccccc1)NCCCNc1cccc(Br)n1 [compound 7121, N-{3-[(6-bromopyridin-2-yl)amino]propyl}-2-phenylacetamide] | 10 µM | 
17 | O=C(O)CNc1ccc(Br)c(Br)n1 [compound 7122, 2-[(5,6-dibromopyridin-2-yl)amino]acetic acid] | 1 µM | 
18 | O=C(Cc1ccccc1)NCCCCNc1cccc(Br)n1 [compound 7123, N-{4-[(6-bromopyridin-2-y1)amino]butyl}-2-phenylacetamide] |  | activity score (Lettuce seeds): 4 (0.01 mM)
19 | O=C(O)CSc1nc(Br)ccc1Br [compound 7124, [(3,6-dibromopyridin-2-yl)sulfanyl]acetic acid] | 1 µM | 
20 | O=C(O)CNc1nc(Cl)cs1 [compound 7125, 2-[(4-chloro-1,3-thiazol-2-yl)amino]acetic acid] | 10 µM | 
21 | CCOC(=O)c1c[nH]cc1CC#N [compound 7131, ethyl 4-(cyanomethyl)-1H-pyrrole-3-carboxylate] | 10 µM | 

Row | SMILES | minimal effective concentration (Lettuce seeds) | further results
22 | O=C(O)C[S+]([O-])c1nc(Cl)sc1Cl (stereo not shown) [compound 7137, (2,5-dichloro-1,3-thiazole-4-sulfinyl)acetic acid] | 10 µM | 
23 | O=C(O)CS(=O)(=O)c1nc(Cl)sc1Cl [compound 7138, (2,5-dichloro-1,3-thiazol-4-sulfonyl)acetic acid] | 10 µM | 
24 | CCOCCOCCOC(=O)CSc1ccc(Br)c(Br)n1 [compound 7139, 2-(2-ethoxyethoxy)ethyl [(5,6-dibromopyridin-2-yl)sulfanyl]acetate] | 1 µM | 
25 | O=C(O)CC#Cc1nc(Cl)sc1Cl [compound 7145, 4-(2,5-dichloro-1,3-thiazol-4-yl)but-3-ynoic acid] | 1 µM | 
26 | O=C(O)CNc1c(Cl)csc1Cl [compound 7147, 2-[(2,4-dichlorothiophen-3-yl)amino]acetic acid hydrochloride] | 10 µM | 
27 | O=C(O)CNc1ccc(F)c(Br)n1 [compound 7148, 2-[(6-bromo-5-fluoropyridin-2-yl)amino]acetic acid] | 10 µM | 
28 | O=C(O)CSc1ccc(F)c(Br)n1 [compound 7151, [(6-bromo-5-fluoropyridin-2-yl)sulfanyl]acetic acid] | < 1 µM | 
29 | CCOC(=O)CSc1nc(Br)ccc1F [compound 7160, ethyl 2-[(6-bromo-3-fluoropyridin-2-yl)sulfanyl]acetate] | < 1 µM | 
30 | O=C(O)CCCCNc1ccc(F)c(Br)n1 [compound 7165, 5-[(6-bromo-5-fluoropyridin-2-yl)amino]pentanoic acid] | 10 µM | 
31 | COC(=O)Cc1nc(Cl)sc1C#N [compound 7167, methyl 2-(2-chloro-5-cyano-1,3-thiazol-4-yl)acetate] | 10 µM | 
32 | COC(=O)Cc1ncsc1C#N [compound 7168, methyl 2-(5-cyano-1,3-thiazol-4-yl)acetate] | 10 µM | 
33 | O=C(O)CNc1nc(Br)c(Br)cc1F [compound 7169, 2-[(5,6-dibromo-3-fluoropyridin-2-yl)amino]acetic acid] | 1 µM | 
34 | O=C(O)CCCCNc1nc(Br)c(Br)cc1F [compound 7170, 5-[(5,6-dibromo-3-fluoropyridin-2-yl)amino]pentanoic acid] | 1 µM | 
35 | CCOCCOCCOC(=O)COc1ccc(Br)c(Br)n1 [compound 7172, 2-(2-ethoxyethoxy)ethyl [(5,6-dibromopyridin-2-yl)oxy]acetate] | 1 µM | 
36 | O=C(O)CCCSc1ccc(Br)c(Br)n1 [compound 7174, 4-[(5,6-dibromopyridin-2-yl)sulfanyl]butanoic acid] | < 1 µM | 
37 | O=C(O)CCSc1ccc(Br)c(Br)n1 [compound 7178, 3-[(5,6-dibromopyridin-2-yl)sulfanyl]propanoic acid] | 1 µM | 
38 | CC(Sc1ccc(Br)c(Br)n1)C(=O)O (stereo not shown) [compound 7182, 2-[(5,6-dibromopyridin-2-yl)sulfanyl]propanoic acid] | 10 µM | 
39 | O=C(O)CCCCSc1ccc(Br)c(Br)n1 [compound 7187, 5-[(5,6-dibromopyridin-2-yl)sulfanyl]pentanoic acid] | 1 µM | 
40 | CCOC(=O)C(Cl)(Cl)c1csc(Cl)n1 [compound 7188, ethyl dichloro(2-chloro-1,3-thiazol-4-yl)acetate] | 100 µM | 
41 | CCOC(=O)Sc1csc(Cl)n1 [compound 7189, S-(2-chloro-1,3-thiazol-4-yl) O-ethyl carbonothioate] | 10 µM | 
42 | O=C(O)c1csc(Cl)n1 [compound 7194, 2-chloro-1,3-thiazole-4-carboxylic acid] | 100 µM | 
